Laboratory results as given in patent US20070244006A1, “Fungicidal Mixtures” (priority 2004, published 2007).

Experiments:
[1] = tested on: Venturia inaequalis; assay: Activity against scab on apple leaves caused by Venturia inaequalis, protective application; type: in vivo; conditions: inoculated 12 days after treatment
Method: (§1) The active compounds, separately or jointly, were prepared as a stock solution comprising 0.25% by weight of active compound in acetone or DMSO. 1% by weight of the emulsifier Uniperol® EL (wetting agent having emulsifying and dispersant action based on ethoxylated alkylphenols) was added to this solution, and the mixture was diluted with water to the desired concentration.
Leaves of apples were sprayed to runoff point with an aqueous suspension having the concentration of active compound stated below. After 12 days, the treated plants were inoculated with an aqueous spore suspension of Venturia inaequalis. The apples were then initially placed in a water-vapor-saturated chamber at 24° C. for 48 hours and then in a greenhouse at temperatures between 20 and 24° C. for 20 days. The extent of the development of the infection on the upper sides of the leaves was then determined visually.
The visually determined percentages of infected leaf areas were converted into efficacies in % of the untreated control:
The efficacy (E) is calculated as follows using Abbot's formula: E=(1−α/β)[…] α corresponds to the fungal infection of the treated plants in % and β corresponds to the fungal infection of the untreated (control) plants in % An efficacy of 0 means that the infection level of the treated plants corresponds to that of the untreated control plants; an efficacy of 100 means that the treated plants were not infected.
The expected efficacies of mixtures of active compounds were determined using Colby's formula (Colby, S. R. “Calculating synergistic and antagonistic responses of herbicide Combinations”, Weeds, 15, 20-22, 1967) and compared with the observed efficacies.
Colby's formula: E=x+y−x·y/100
E expected efficacy, expressed in % of the untreated control, when using the mixture of the active compounds A and B at the concentrations a and b x efficacy, expressed in % of the untreated control, when using the active compound A at the concentration a y efficacy, expressed in % of the untreated control, when using the active compound B at the concentration b

[2] = tested on: Pyrenophora teres; assay: Activity against net blotch of barley caused by Pyrenophora teres, 1 day protective application; type: in vivo, Pyrenophora [syn. Drechslera] teres; conditions: barley seedlings cultivar Hanna, inoculated 24 hours after treatment
Method: as §1
Leaves of potted barley seedlings of the cultivar “Hanna” were sprayed to runoff point with an aqueous suspension having the concentration of active compound stated below. 24 hours after the spray coating had dried on, the test plants were inoculated with an aqueous spore suspension of Pyrenophora [syn. Drechslera] teres, the net blotch pathogen. The test plants were then placed in a greenhouse at temperatures between 20 and 24° C. and at 95 to 100% relative atmospheric humidity. After 6 days, the extent of the development of the disease was determined visually in % infection of the entire leaf area.
(§2) Evaluation was carried out analogously to example 1.

[3] = tested on: Plasmopara viticola; assay: Activity against peronospora of grapevines caused by Plasmopara viticola, 9 day protective application; type: in vivo; conditions: potted vines, inoculated 9 days after treatment
Method: as §1
Leaves of potted vines were sprayed to runoff point with an aqueous suspension having the concentration of active compound stated below. To be able to assess the persistency of the substances, the plants were, after the spray coating had dried on, placed in a greenhouse for 9 days. Only then were the leaves inoculated with an aqueous zoospore suspension of Plasmopara viticola. The grapevines were then initially placed in a water-vapor-saturated chamber at 24° C. for 48 hours and then in a greenhouse at temperatures between 20 and 30° C. for 5 days. After this time, the plants were again placed in a humid chamber for 16 hours, to promote sporangiophore eruption. The extent of the development of the infection on the undersides of the leaves was then determined visually.
as §2

Compound: CC1CCN(c2c(-c3c(F)cc(F)cc3F)c(Cl)nc3ncnn23)CC1 [I-1, 5-chloro-7-(4-methylpiperidin-1-yl)-6-(2,4,6-trifluorophenyl)-[1,2,4]triazolo[1,5-a]pyrimidine]
- Efficacy in % of the untreated control ([1]; 25 ppm in the spray liquor): 18%
- Efficacy in % of the untreated control ([1]; 50 ppm in the spray liquor): 48%
- Efficacy in % of the untreated control ([2]; 3.1 ppm in the spray liquor): 66%
- Efficacy in % of the untreated control ([3]; 25 ppm in the spray liquor): 13%
- Efficacy in % of the untreated control ([3]; 50 ppm in the spray liquor): 25%

Compound: C[N+](C)(C)CCCl [chlormequat chloride (IIc.1), chlormequat chloride]
- Efficacy in % of the untreated control ([2]; 3.1 ppm in the spray liquor): 0%
- Efficacy in % of the untreated control ([2]; 6.3 ppm in the spray liquor): 0%

Compound: CC(=NNC(=O)Nc1cc(F)cc(F)c1)c1ncccc1C(=O)O [diflufenzopyr (III.1), 2-{1-[4-(3,5-difluorophenyl)semicarbazono]ethyl}nicotinic acid]
- Efficacy in % of the untreated control ([2]; 0.031 ppm in the spray liquor): 0%

Compound: CCC(=O)C1=C([O-])CC(C(=O)[O-])CC1=O.[Ca+2] (stereo not drawn) [prohexadione-Ca (IIa.1), prohexadione-Ca]
- Efficacy in % of the untreated control ([1]; 50 ppm in the spray liquor): 4%
- Efficacy in % of the untreated control ([1]; 100 ppm in the spray liquor): 29%
- Efficacy in % of the untreated control ([3]; 50 ppm in the spray liquor): 0%
- Efficacy in % of the untreated control ([3]; 100 ppm in the spray liquor): 0%
